Measurements as given in US5747503A, “Selective inhibitors of biogenic amine transporters” (priority 1996, dated 1998).
“Also recorded” adds a separate entry of the source. Read-outs that look alike come from different tables or passages of the source.

Experiments:
[1] = test system: [^3 H]DA uptake; experiment: Synaptosomal [^3 H]DA uptake inhibition; type: biochemical, rat; conditions: for IC50: Table 2, nM ± SD, rat striatum synaptosomes
Method: Synaptosomal uptake assays were carried out as described (Rothman et al. (1993), supra). Briefly, synaptosomes were prepared by homogenization of rat striatum (for [^3 H]DA reuptake) or whole rat brain minus cerebellum (for [^3 H]5-HT reuptake) in ice-cold 10% sucrose, using a Potter-Elvehjem homogenizer. After a 1000×g centrifugation for 10 min at 4° C., the supernatants were retained on ice. The uptake assays were initiated by the addition of 100 μl of synaptosomes to 12×75 mm polystyrene test tubes, which were prefilled with 750 μl of [^3 H]ligand (2 nM [^3 H]5-HT or 5 nM [^3 H]DA) in a Krebs-phosphate buffer (pH 7.4), which contained ascorbic acid (1 mg/ml) and pargyline (50 μM) (buffer), 100 μl of test drugs made up in buffer containing 1 mg/ml bovine serum albumin, and 50 μl of buffer. The [^3 H]5-HT reuptake experiments were conducted in the presence of 100 nM nomifensine and […] GBR12935 in order to block any possible reuptake into NE and DA nerve terminals. […] The nonspecific uptake of each [^3 H]ligand was measured by incubations in the presence of 1 μM GBR12909 ([^3 H]DA) and 10 μM fluoxetine ([^3 H]5-HT). The incubations were terminated after a 15 min ([^3 H]DA) or 30 min ([^3 H]5-HT) incubation at 25° C. by adding 4 ml of wash buffer (10 mM TRIS-HCl, pH 7.4 containing 0.9% NaCl at 25° C.), followed by rapid filtration over Whatman GF/B filters and one additional wash cycle. […] The Krebs-phosphate buffer contained 154.5 mM NaCl, 2.9 mM KCl, 1.1 mM CaCl2, 0.83 mM MgCl2 and 5 mM glucose. The tritium retained on the filters was counted, in a Taurus beta counter, after an overnight extraction into ICN Cytoscint cocktail.
(§1) Inhibition curves were fit to the two parameter logistic equation for the best-fit estimates of the IC50 using nonlinear least squares curve fitting methods as previously described (Rothman et al. (1993), supra); Jones, S. M. and Rogawski, M. A. Mol. Neuropharmacol. 2: 303-310 (1992)).
(§2) Synaptosomal uptake and ligand binding assays were conducted as described
above. Preliminary experiments were conducted to determine the doserange
Each [^3 H] ligand was displaced
by 10 concentrations of test drug. The data of two experiments were
(§3) pooled, and fit to the two parameter logistic equation for the bestfit
estimates of the IC50 reported above.

[2] = target: T1, NE transporter (Rattus norvegicus, UniProt Q63380); experiment: [^3 H]Nisoxetine binding to NE transporter
T1 construct: from tissue; host or cells: brain membranes prepared by a cited method
T1 sequence (Q63380 1-617): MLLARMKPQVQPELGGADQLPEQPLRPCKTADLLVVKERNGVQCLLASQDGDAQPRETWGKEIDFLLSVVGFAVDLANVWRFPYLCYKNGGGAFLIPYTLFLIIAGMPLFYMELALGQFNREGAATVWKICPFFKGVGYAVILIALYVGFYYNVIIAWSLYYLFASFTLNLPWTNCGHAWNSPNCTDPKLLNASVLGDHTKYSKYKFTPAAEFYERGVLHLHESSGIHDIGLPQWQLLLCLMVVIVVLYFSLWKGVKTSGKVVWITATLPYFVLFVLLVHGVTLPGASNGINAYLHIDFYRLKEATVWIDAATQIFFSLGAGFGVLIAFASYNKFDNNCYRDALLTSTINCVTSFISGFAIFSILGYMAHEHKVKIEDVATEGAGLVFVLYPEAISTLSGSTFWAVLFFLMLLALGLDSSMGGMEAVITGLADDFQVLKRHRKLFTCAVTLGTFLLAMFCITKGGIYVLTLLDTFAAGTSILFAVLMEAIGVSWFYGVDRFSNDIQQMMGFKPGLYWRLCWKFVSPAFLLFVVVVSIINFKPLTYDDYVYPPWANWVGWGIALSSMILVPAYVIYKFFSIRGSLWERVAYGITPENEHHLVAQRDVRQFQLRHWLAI
Method: Membranes for the [^3 H]nisoxetine assay were prepared as described (Rothman, R. B., et al. Synapse 14: 34-39 (1993)).
(§4) The [^3 H]nisoxetine assay for the norepinephrine transporter (NE) was carried out as described (Rothman, et al. (1993), supra; Tejani-Butt, S. M., et al. Eur. J. Pharmacol. 191:239-243 (1990)). DA transporters were labeled with [^3 H)CFT with minor modifications of published protocols (Madras, B. K., et al. Mol. Pharmacol. 36: 518-524 (1989)). Briefly, 12×75 mm polystyrene test tubes were prefilled with 100 μl of drug, 100 μl of radiolabeled (1 nM final concentration), 50 μl of buffer. Drugs were dissolved in BB containing 1 mg/ml bovine serum albumin (BB/BSA). Radioligands were made to a final concentration in a protease inhibitor cocktail containing 1 mg/ml BSA {BB containing chymostatin (25 μg/ml), leupeptin (25 μg/ml), EDTA (100 μM), and EGTA (100 μM)}. The assay was initiated by the addition of 750 μl of membranes, prepared as described above. Brandel cell harvesters were used to filter the samples over Whatman GF/B filters, which were presoaked in wash buffer (ice-cold 10 mM TRIS-HCL, pH 7.4 containing 150 mM NaCl) containing 2% polyethylenimine. In this procedure, samples were filtered and then washed with two 4 ml aliquots of ice-cold wash buffer. Nonspecific binding was defined using 10 μM (final concentration) GBR12909. All subsequent steps were identical to those described above.
as §1, §2
(§5) Preliminary experiments were conducted to determine the doserange
(§6) The data of two experiments were
as §3

[3] = target: T2, DA transporter (Rattus norvegicus, UniProt P23977); experiment: [^3 H]CFT binding to DA transporter
T2 construct: Striata were dissected using glass manipulators; from tissue; host or cells: striatum of male Sprague-Dawley rats, membranes
T2 sequence (P23977 whole entry): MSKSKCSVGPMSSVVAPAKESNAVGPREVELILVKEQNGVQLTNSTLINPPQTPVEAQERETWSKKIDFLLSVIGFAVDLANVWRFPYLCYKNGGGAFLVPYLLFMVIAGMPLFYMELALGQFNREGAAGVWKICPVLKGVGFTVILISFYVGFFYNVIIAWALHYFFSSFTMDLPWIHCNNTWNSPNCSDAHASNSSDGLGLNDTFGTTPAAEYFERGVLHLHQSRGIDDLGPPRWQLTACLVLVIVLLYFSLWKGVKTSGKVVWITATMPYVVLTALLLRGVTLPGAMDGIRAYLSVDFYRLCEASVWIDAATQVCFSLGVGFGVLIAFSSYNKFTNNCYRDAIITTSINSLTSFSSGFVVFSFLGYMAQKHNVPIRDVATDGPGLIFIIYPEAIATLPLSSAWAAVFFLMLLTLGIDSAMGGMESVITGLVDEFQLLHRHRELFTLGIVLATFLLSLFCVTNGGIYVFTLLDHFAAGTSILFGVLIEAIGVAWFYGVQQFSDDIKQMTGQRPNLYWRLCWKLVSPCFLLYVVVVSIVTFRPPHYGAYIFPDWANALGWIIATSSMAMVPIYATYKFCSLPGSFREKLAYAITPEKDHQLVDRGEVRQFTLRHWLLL
Method: For [^3 H]J2B-carbomethoxy-3B-(4-fluorophenyl)-tropane (CFT, WIN35,428) binding assays, male Sprague-Dawley rats (200 to 300 gm) were anesthetized with C02 gas, and decapitated. Striata were dissected using glass manipulators, placed in small plastic containers, and then allowed to freeze by placing the container in dry ice.
Striata collected in this way were stored at […]. On the day of the assay, each striatum was placed in ice-cold binding buffer (BB: 55.2 mM sodium phosphate buffer, pH 7.4, 5 ml per caudate), and homogenized while still frozen with a Polytron. The homogenate was centrifuged for 10 min at 30,000×g, and the pellet was resuspended in an equal volume of BB. The homogenate was recentrifuged, and the pellet was resuspended in an equal volume of BB. An aliquot was saved for determination of protein (0.5 ml), and the remaining homogenate was brought up to a final volume of 22 ml/striatum using ice-cold BB. […] Aliquots of membranes were then used in the radioligand binding assays.
as §4, §1, §2, §5, §6, §3

[4] = target: PCP site 1; experiment: [^3 H](+)-MK801 binding to PCP site 1; parameters: species or system guinea pig
Method: Large batches of frozen membranes were prepared with minor modifications of published procedures (Rothman, et al. (1989), supra). Twenty to thirty frozen guinea pig brains with cerebellum were thawed for 15 minutes and homogenized with a Polytron in ice-cold 5 mM Tris-HCl, pH 8.0 (10 ml/brain). The homogenate was centrifuged at 37,000×g for 10 minutes, and the pellet was washed by resuspension in the same volume of buffer followed by recentrifugation. The pellets were resuspended in an equal volume of 5 mM Tris-HCl, pH 8.0, and the concentration was adjusted to 50 mM by the addition of 1M Tris-HCl, pH 8.0. The homogenate was centrifuged for 10 min at 37,000×g. The pellets were then washed three times by resuspension and centrifugation using 50 mM Tris-HCl, pH 8.0. The final pellets were resuspended in the Tris-HCl buffer (0.5 ml/brain), pooled and 1 ml aliquots were distributed to microfuge tubes, which were stored at -70° for assay. […]
as §1
^a The binding assays for PCP (site 2) and PCP (site 1) were conducte
as previously reported (Rothman, R. B., et al., In: Multiple Sigma and PC
Receptor Ligands: Mechanisms for Neuromodulation and Protection 307-330
(Domino, E. F. and Kamenka, J. M., eds., 1992) using [^3 H]TCP in the
presence of (+)MK801 for site 2 and [^3 HMK801 for site 1 except that

[5] = Table 2, nM ±, read-out: [^3 H]Nisoxetine Binding IC50
[6] = Table 2, nM ± SD, rat striatum, read-out: [^3 H]CFT Binding IC50

Structure (SMILES): CN1[C@H](Cc2ccccc2)C[C@H]2Cc3ccccc3[C@H]21 (relative stereo) [RTI-4793-14, (2RS, 3aSR, 8aRS)-1,2,3a,8,8a-Hexahydro-2-benzyl-1-methyl-indeno[1,2-b]pyrrole]
- [^3 H]DA uptake inhibition in words [1]: moderate potency
- IC50 [1]: 547 ± 20 nM
- [^3 H]nisoxetine binding / NE transporter affinity in words [2]: moderate potency
- IC50 [2, 5]: 609 ± 48 nM
- [^3 H]CFT binding inhibition in words [3]: moderate potency
- IC50 [3, 6]: 850 ± 101 nM
- IC50 [4]: > 36000 nM
- affinity for PCP site 1 in words [4]: low affinity
- IC50 ([4]; Table 1, [^3 H]MK801): > 20000 nM
- IC50 ([4]; Table 2, nM ± SD): > 36000 nM
- IC50 ([4]; Table 3, guinea pig membranes): > 2000 nM

Structure (SMILES): c1ccc(C2(N3CCCCC3)CCCCC2)cc1 [PCP, phencyclidine]
- IC50 [1]: 347 nM
- IC50 [2]: 16630 ± 98 nM
- [^3 H]nisoxetine binding / NE transporter affinity in words [2]: very low affinity
- IC50 [3]: > 1500 nM
- [^3 H]CFT binding inhibition in words [3]: lower affinity
- IC50 ([4]; Table 1, [^3 H]MK801): 117 ± 3 nM
- IC50 ([4]; Table 2, nM ± SD): 117 ± 3 nM

Structure (SMILES): CNC1CC(c2ccc(Cl)c(Cl)c2)c2ccccc21 (stereo not shown) [Indatraline]
- [^3 H]DA uptake inhibition in words [1]: potently inhibited; also recorded: potent inhibitor
- IC50 [1]: 3.23 ± 0.45 nM
- [^3 H]CFT binding inhibition in words [3]: potently inhibited; also recorded: potent inhibitor
- IC50 [4]: > 100000 nM
- affinity for PCP site 1 in words [4]: negligible affinity
- IC50 ([4]; Table 2, nM ± SD): > 100000 nM

Structure (SMILES): C[C@]12N[C@H](Cc3ccccc31)c1ccccc12 [(+)-MK801]
- [^3 H]DA uptake inhibition in words [1]: negligible affinity
- IC50 [1]: > 10000 nM
- [^3 H]nisoxetine binding / NE transporter affinity in words [2]: negligible affinity
- IC50 [2, 5]: 6580 ± 860 nM
- [^3 H]CFT binding inhibition in words [3]: negligible affinity
- IC50 [3, 6]: > 15000 nM
- affinity for PCP site 1 in words [4]: high affinity
- IC50 ([4]; Table 1, [^3 H]MK801): 4.58 ± 0.19 nM
- IC50 ([4]; Table 2, nM ± SD): 4.58 ± 0.19 nM
- greater potency at PCP site 1 than PCP ([4]; versus PCP): 25 fold
